Assay results reported in PMC8584989 (International Journal of Molecular Sciences, 2021).
pIC50: −log10 of the molar value.

Columns and labels:
MDCKII-parent cells = assay: MTT proliferation / drug combination assay; type: cell-based, canine; details: Canis lupus familiaris, read-out: IC50 (IC50-shift analysis)
Protocol: (§1) These colorimetric assays were used in various studies presented in this paper (prior induction studies, MDR reversal experiments and comparative viability assays) and were performed as reported previously. […] In MTT experiments, cells were seeded on a 96-well culture plate at densities (in number of cells/well) of 1.3 × 10^4 for MDCKII-par, MDCKII-ABCB1 and MDCKII-ABCG2; 1.2 × 10^4 for A431-par, A431-ABCB1, A431-ABCG2 and A431-ABCC1; 1.2 × 10^4 for NCI-H1299; 1.0 × 10^4 for A459; 2.0 × 10^4 for Caco-2; 5.0 × 10^4 for LS174T; and 1.0 × 10^4 for primary NSCLC explants. On the other hand, for XTT cells were seeded with densities 2.0 × 10^4 for HL60-par, HL60-ABCB1, HL60-ABCG2 and HL60-ABCC1 cells/well on 96-well plates. […] Following 48 h incubation with drugs, Opti-MEM solutions of MTT or XTT (1 mg/mL) with phenazine methosulfate solution (7.50 μg/mL; only for XTT) was added and the cells were incubated for 1 h with the exception of HL60s that were incubated for 5 h.
(§2) Based on the computed CI values, the effects of drug combinations were classified as synergistic (CI < 0.9), additive (0.9 < CI < 1.1) or antagonistic (CI > 1.1).

A431-par cells = assay: MTT proliferation / drug combination assay; type: cell-based; details: read-out: IC50 (IC50-shift analysis)
Protocol: as §1, §2

HL60-par cells = assay: XTT proliferation / drug combination assay; type: cell-based; details: read-out: IC50 (IC50-shift analysis)
Protocol: as §1, §2

MDCKII-ABCB1 cells = assay: MTT proliferation / drug combination assay; details: Canis lupus familiaris, read-out: IC50 (IC50-shift analysis)
A431-ABCB1 cells = assay: MTT proliferation / drug combination assay; details: read-out: IC50 (IC50-shift analysis)
HL60-ABCB1 cells = assay: XTT proliferation / drug combination assay; details: read-out: IC50 (IC50-shift analysis)
A431-ABCG2 cells = assay: MTT proliferation / drug combination assay; details: read-out: IC50 (IC50-shift analysis)
HL60-ABCG2 cells = assay: XTT proliferation / drug combination assay; details: read-out: IC50 (IC50-shift analysis)

SMILES | pIC50 (MDCKII-parent cells) | pIC50 (A431-par cells) | pIC50 (HL60-par cells) | pIC50 (MDCKII-ABCB1 cells) | pIC50 (A431-ABCB1 cells) | pIC50 (HL60-ABCB1 cells) | pIC50 (A431-ABCG2 cells) | pIC50 (HL60-ABCG2 cells)
COc1cccc2c1C(=O)c1c(O)c3c(c(O)c1C2=O)C[C@@](O)(C(C)=O)C[C@@H]3O[C@H]1C[C@H](N)[C@H](O)[C@H](C)O1 [daunorubicin] | 6.02 | 5.70 | 7.27 | 4.92 | 4.66 | 5.67 | – | –
O=C1c2c(O)ccc(O)c2C(=O)c2c(NCCNCCO)ccc(NCCNCCO)c21 [mitoxantrone] | – | 5.68 | 7.52 | – | – | – | 4.25 | 6.17
